Assay results from patent US20070032556A1, “Aromatic polyamine derivative” (priority 2003, published 2007).
Like-named read-outs stand apart in the source and are kept apart here. Each block holds one compound with its values, some of them ahead of it.

Test: solubility of the monomers or polymer in the coating solvent
Assay type: physicochemical
Protocol: In 100 g of mesitylene were dissolved 2.48 g (8 mmol) of 1,3,5-adamantanetricarboxylic acid trimethyl ester prepared in Synthesis Example 1 and 6.42 g (12 mmol) of 3,3′-diaminobenzidinetetracyclohexanoimine[N,N′,N″,N′″-tetracyclohexylidene-3,4,3′,4′-biphenyltetramine] prepared in Example 5 at room temperature in a nitrogen atmosphere and thereby yielded a coating composition having a monomer concentration of 8.2 percent by weight. The coating composition was passed through a filter with a pore size of 0.1 micron and was applied to an 8-inch silicon wafer by spin coating. This was heated at 300° C. in a nitrogen atmosphere for thirty minutes, was further heated at 400° C. for thirty minutes, and thereby yielded a film. The infrared absorption spectrum of the resulting polymer film was determined to find that the target crosslinked polybenzimidazole film was formed as shown in the infrared absorption spectral data in FIG. 1. The film has a film thickness of 300 nm.
The procedure of Example 15 was repeated, except for using the same amounts as in Example 15 of 1,3,5-adamantanetricarboxylic acid and 3,3′-diaminobenzidine instead of 1,3,5-adamantanetricarboxylic acid trimethyl ester and N,N′,N″,N′″-tetracyclohexylidene-3,4,3′,4′-biphenyltetramine, respectively, to find the solubility in the solvent (mesitylene) was low. Consequently, a coating composition having a monomer concentration of 1.2 percent by weight was prepared by the procedure of Example 15, except for using 0.54 g (2 mmol) of 1,3,5-adamantanetricarboxylic acid and 0.64 g (3 mmol) of 3,3′-diaminobenzidine. By using this coating composition, a polymer film was prepared by the procedure of […], and the infrared absorption spectrum of the polymer film was determined to find that the target crosslinked polybenzimidazole film was formed. The film has a film thickness of less than 20 nm.
A coating composition having a monomer concentration of 14.7 percent by weight was prepared by dissolving 4.42 g (12 mmol) of 1,3,5,7-adamantanetetracarboxylic acid tetramethyl ester and 12.83 g (24 mmol) of 3,3′-diaminobenzidinetetracyclohexanoimine[N,N′,N″,N′″-tetracyclohexylidene-3,4,3′,4′-biphenyltetramine] prepared according to Example 5 in 100 g of methyl isobutyl ketone (MIBK) at room temperature in a nitrogen atmosphere. The coating composition was passed through a filter with a pore size of 0.1 micron and was applied to an 8-inch silicon wafer by spin coating. This was heated at 300° C. in a nitrogen atmosphere for thirty minutes and further heated at 400° C. for thirty minutes to yield a film. The infrared absorption spectrum of the resulting polymer film was determined to find that the target crosslinked polybenzimidazole film was formed. The film has a film thickness of 400 nm.
The procedure of Example 16 was repeated, except for using the same amounts as in Example 16 of 1,3,5,7-adamantanetetracarboxylic acid and 3,3′-diaminobenzidine instead of 1,3,5,7-adamantanetetracarboxylic acid tetramethyl ester and N,N′,N″,N′″-tetracyclohexylidene-3,4,3′,4′-biphenyltetramine, respectively, to find that the solubility in the solvent (methyl isobutyl ketone: MIBK) was low. Consequently, a coating composition having a monomer concentration of 1.5 percent by weight was prepared by the procedure of Example 16, except for using 0.62 g (2 mmol) of 1,3,5,7-adamantanetetracarboxylic acid and 0.86 g (4 mmol) of 3,3′-diaminobenzidine. By using this coating composition, a polymer film was prepared by the procedure of Example 16, and the infrared absorption spectrum of the film was determined to find that the target crosslinked polybenzimidazole film was formed. The film has a film thickness of less than 20 nm. […]

solubility in the solvent (mesitylene): low
Compound: O=C(O)C12CC3CC(C(=O)O)(C1)CC(C(=O)O)(C3)C2 [1,3,5-adamantanetricarboxylic acid]

solubility in the solvent (methyl isobutyl ketone: MIBK): low
Compound: O=C(O)C12CC3(C(=O)O)CC(C(=O)O)(C1)CC(C(=O)O)(C2)C3 [1,3,5,7-adamantanetetracarboxylic acid]

Compound: Nc1ccc(-c2ccc(N)c(O)c2)cc1O [3,3′-dihydroxybenzidine]
solubility in the solvent (propylene glycol monomethyl ether: PGME) (same amounts as in Example 19 in 100 g PGME, room temperature, nitrogen atmosphere, together with 1,3,5-adamantanetricarboxylic acid): low

Compound: Nc1ccc(-c2ccc(N)c(N)c2)cc1N [3,3′-diaminobenzidine]
solubility in the solvent (mesitylene) (same amounts as in Example 15 in 100 g mesitylene, room temperature, nitrogen atmosphere, acid and amine monomer dissolved together): low
solubility in the solvent (methyl isobutyl ketone: MIBK) (same amounts as in Example 16 in 100 g MIBK, room temperature, nitrogen atmosphere, acid and amine monomer dissolved together): low
solubility in the solvent (dioxane) (same amounts as in Example 17 in 100 g dioxane, room temperature, nitrogen atmosphere, together with 1,3,5-adamantanetricarboxylic acid): low
